Data published in PMC7763008, “Antimicrobial, Anticancer and Multidrug-Resistant Reversing Activity of Novel Oxygen-, Sulfur- and Selenoflavones and Bioisosteric Analogues” (Pharmaceuticals, 2020).
Read-outs that look alike come from different tables or passages of the source.

Columns and labels:
[1] = test system: Colo 320/MDR-LRP human colonic adenocarcinoma cell line (multidrug resistant); test: MTT antiproliferative activity assay, Colo 320; format: cell-based; conditions: 5 × 10^3 cells/well, read-out: Antiproliferative activity, B—Colo 320 IC50
Source text: (§1) Three cell lines have been used in this work: (i), the doxorubicin-sensitive Colo 205 (ATCC-CCL-222) human colonic adenocarcinoma cell line; (ii) the multidrug resistant Colo 320/MDR-LRP expressing P-gp (MDR1)-LRP (ATCC-CCL-220.1) human colonic adenocarcinoma cell line; and the MRC-5 human embryonal lung fibroblast cell line (ATCC CCL-171). The three cell lines were purchased from LGC Promochem, Teddington, UK.
(§2) Colo 205 (ATCC-CCL-222) and Colo 320/MDR-LRP expressing P-gp (MDR1)-LRP (ATCC-CCL-220.1 human colon adenocarcinoma cell lines. As previously described, the cells were cultured in RPMI 1640 medium supplemented with 10% heat-inactivated fetal bovine serum, 2 mM L-glutamine, 1 mM Na-pyruvate, and 100 mM Hepes. The cell lines were incubated at 37 °C, in a 5% CO2, 95% air atmosphere. The semi-adherent human colon cancer cells were detached with Trypsin-Versene (EDTA) solution for 5 min at 37 °C [20].
(§3) The influence of synthetic flavonoid derivatives (compounds 1–6) on the doxorubicin-sensitive Colo 205, multidrug resistant Colo 320/MDR-LRP adenocarcinoma and MRC-5 cell lines was evaluated employing the MTT metabolic activity assay, using a procedure described in Supplementary Materials and in previous works, and applying the appropriate formulas to calculate the cell growth inhibition and the selectivity index (SI), as well as the criterion to determine whether a compound is strongly or moderately selective.
(§4) Briefly, the serial dilutions in culture medium required for the MTT metabolic assay (ranging from 100 to 0.195 µM) were freshly prepared before the assay. The stock solutions (10 mM) of the tested compounds were prepared in pure DMSO and the final concentration of DMSO was adjusted to less than 1% threshold in the biological experiments. The concentration-dependent growth inhibition was evaluated in 96-well flat-bottomed microtiter plates. Doxorubicin (DOXO) was employed as a positive control whilst culture medium containing cells was used as a negative control.
(§5) In the case of the colonic adenocarcinoma cells, two-fold serial dilutions of the flavone compounds were prepared in 100 μL of RPMI 1640, horizontally. Furthermore, the semi-adherent colonic adenocarcinoma cells were treated with Trypsin-Versene (EDTA) solution. Then, cells were adjusted to a density of 5 × 10^3/well for antiproliferative assay and 1 × 10^4/well for the estimation of cytotoxic activity in 100 µL of medium. The cells were added to each well except to the medium control wells. The culture plates were subsequently incubated at 37 °C for 24 h and 72 h, respectively; 20 μL of MTT solution (thiazolyl blue tetrazolium bromide, Sigma) were added to each well from MTT stock solution (5 mg /mL) after incubation. After 4 h of incubation at 37 °C, 100 μL of sodium dodecyl sulfate (SDS) solution (10% in 0.01 M HCl) was added to each well and all plates were incubated at 37 °C overnight. Finally, cell growth was determined by measuring the optical density (OD) at 540 nm (ref. 630 nm) with Multiscan EX ELISA reader (Thermo Labsystems, Cheshire, WA, USA).
(§6) The inhibition of the cell growth was determined according to the formula mentioned elsewhere. Finally, the cell viability and IC50 values for every tested compound and doxorubicin were calculated using GraphPad Prism, version 5.03.

[2] = test system: S. feltiae; test: Nematicidal activity assay; format: in vivo; conditions: Steinernema feltiae; for viability at 200 µM: read-out: Viability of the nematodes; for IC50: in Figure 2
Protocol: The soil nematodes S. feltiae were freshly purchased for experiment from Sautter and Stepper GmbH (Ammerbuch, Germany) and stored at 4 °C in the dark. The assay was performed according to the protocols described in the literature. Results were expressed as mean ± standard deviation (SD) and their statistical significance values were determined by one-way ANOVA followed by Tukey’s multiple comparison test. To consider data statistically significant, the p value should be ≤ 0.05.

[3] = MTT cytotoxic activity assay, MRC-5; format: cell-based; conditions: human
Source text: as §1
MRC-5 human embryonal lung fibroblast cell line (ATCC CCL-171). As previously described, the cells were cultured in Eagle’s Minimal Essential Medium (EMEM, containing 4.5 g/L of glucose) supplemented with a non-essential amino acid mixture, a selection of vitamins and 10% heat-inactivated fetal bovine serum. The cell lines were incubated at 37 °C, in a 5% CO2, 95% air atmosphere.
as §3, §4
Prior to the experiments, the adherent human embryonal lung fibroblasts (MRC-5) were cultured in flat-bottomed microtiter 96-well plates in an EMEM media supplemented with 10% heat-inactivated fetal bovine serum. Cells were seeded at a density of 10.000 cells per well for 24 h before the beginning of the experiment. The cells were cultured at 37 °C in the humidified cell incubator with the 5% of CO2 and 95% air environment. The medium was subsequently removed from the plates containing the cells, and the dilutions of tested compounds, previously made in a separate micro-titration plate, were added to the cells (at final volume equal to 200 μL).
as §6

[4] = biological target: P-gp (ABCB1) efflux pump in MDR Colo 320 colon adenocarcinoma cells (Homo sapiens, UniProt P08183); test: Rhodamine 123 accumulation assay (MDR efflux pump inhibition, flow cytometry); conditions: for FAR (fluorescence activity ratio): MDR Colo 320 vs sensitive Colo 205; for FAR Quotient (%): FAR of compound / FAR of verapamil (20 μM) x 100; for Increase in efflux pump inhibitory activity of naphthyl vs corresponding phenyl derivative: naphthyl-substituted vs phenyl-substituted chalcogen flavone, 20 µM data
Protocol: The P-glycoprotein (P-gp) inhibitory properties of the tested flavone derivatives were evaluated in a rhodamine R123 accumulation assay in two different concentrations.
This is a fluorescence-based detection assay which uses verapamil as a reference inhibitor of P-gp efflux pump. […] Compounds (1 μL and 10 μL from a stock solution of 1 mM) were added to the medium to achieve solutions with final concentrations of 2 μM and 20 μM respectively, followed by incubation of the sample for 10 min at room temperature. […] The fluorescence intensity of the cell population was measured with a Partec CyFlow flow cytometer (Partec, Munster, Germany). Verapamil (20 μM) was employed as a positive control. […] The fluorescence activity ratio (FAR) was calculated employing the following equation [20, 26]:FAR = (MDRtreated/MDRcontrol)/(sensitivetreated/ sensitivecontrol)(1)
FAR Quotient % was calculated as follows:Quotient = (FARcompound/FARverapamil) × 100(2)

[5] = test system: Colo 320/MDR-LRP human colonic adenocarcinoma cell line (multidrug resistant); test: MTT cytotoxic activity assay, Colo 320; format: cell-based
Source text: as §1, §2, §3, §4, §5, §6

[6] = test system: Colo 205 human colonic adenocarcinoma cell line (doxorubicin-sensitive); test: MTT antiproliferative activity assay, Colo 205; format: cell-based; conditions: 5 × 10^3 cells/well
Source text: as §1, §2, §3, §4, §5, §6

[7] = test system: Escherichia coli; test: Antibacterial growth assay, E. coli; format: cell-based; conditions: highest concentration (200 µM; not restated for E. coli)
Protocol: (§7) The antimicrobial activities of the compounds were determined according to the protocol described in the literature, employing a Universal Microplate Reader, EL800, Biotech Instruments, Inc. Highland Park, Winooski, VT, USA [23, 24, 25].
(§8) In short words, compounds were dissolved in DMSO and later diluted in the adequate growth media to be evaluated at the final concentrations of 50, 100, 150, and 200 µM. Nutrient Luria Bertani (LB) broth, bacterial basic media, Sabouraud Dextrose (SD), and Yeast Peptone Dextrose (YPD) were exploited as media for Escherichia coli, Staphylococcus carnosus, Candida albicans, and Saccharomyces cerevisiae, respectively. In all cases, the final concentration of DMSO was 1% or less. A mixture of penicillin, streptomycin, and amphotericin B (4 U, 0.4 µg/mL and 10 µg/mL, respectively) was employed as positive control for S. carnosus and E. coli, while ketoconazole was utilized as the positive control for C. albicans and S. cerevisiae. The untreated culture in medium was employed as the negative control for each organism; 1% DMSO stock solution was used as a solvent control. All experiments were performed in triplicates and on three independent occasions (n = 9).

[8] = test system: Staphylococcus carnosus; test: Antibacterial growth assay, S. carnosus; format: cell-based; conditions: highest concentration of 200 µM
Protocol: as §7, §8

[9] = test system: Colo 205 human colonic adenocarcinoma cell line (doxorubicin-sensitive); test: MTT cytotoxic activity assay, Colo 205; format: cell-based; conditions: COLO 205, read-out: Cytotoxic activity, A—Colo 205 IC50
Source text: as §1, §2, §3, §4, §5, §6

[10] = MTT, MRC-5 normal lung fibroblasts, read-out: Cytotoxic activity, C—MRC-5 IC50
[11] = MTT, 1 × 10^4 cells/well, Colo 320, read-out: Cytotoxic activity, B—Colo 320 IC50
[12] = COLO 320, read-out: Cytotoxic activity, B—Colo 320 IC50

P-gp (ABCB1) efflux pump in MDR Colo 320 colon adenocarcinoma cells, sequence (P08183 whole entry): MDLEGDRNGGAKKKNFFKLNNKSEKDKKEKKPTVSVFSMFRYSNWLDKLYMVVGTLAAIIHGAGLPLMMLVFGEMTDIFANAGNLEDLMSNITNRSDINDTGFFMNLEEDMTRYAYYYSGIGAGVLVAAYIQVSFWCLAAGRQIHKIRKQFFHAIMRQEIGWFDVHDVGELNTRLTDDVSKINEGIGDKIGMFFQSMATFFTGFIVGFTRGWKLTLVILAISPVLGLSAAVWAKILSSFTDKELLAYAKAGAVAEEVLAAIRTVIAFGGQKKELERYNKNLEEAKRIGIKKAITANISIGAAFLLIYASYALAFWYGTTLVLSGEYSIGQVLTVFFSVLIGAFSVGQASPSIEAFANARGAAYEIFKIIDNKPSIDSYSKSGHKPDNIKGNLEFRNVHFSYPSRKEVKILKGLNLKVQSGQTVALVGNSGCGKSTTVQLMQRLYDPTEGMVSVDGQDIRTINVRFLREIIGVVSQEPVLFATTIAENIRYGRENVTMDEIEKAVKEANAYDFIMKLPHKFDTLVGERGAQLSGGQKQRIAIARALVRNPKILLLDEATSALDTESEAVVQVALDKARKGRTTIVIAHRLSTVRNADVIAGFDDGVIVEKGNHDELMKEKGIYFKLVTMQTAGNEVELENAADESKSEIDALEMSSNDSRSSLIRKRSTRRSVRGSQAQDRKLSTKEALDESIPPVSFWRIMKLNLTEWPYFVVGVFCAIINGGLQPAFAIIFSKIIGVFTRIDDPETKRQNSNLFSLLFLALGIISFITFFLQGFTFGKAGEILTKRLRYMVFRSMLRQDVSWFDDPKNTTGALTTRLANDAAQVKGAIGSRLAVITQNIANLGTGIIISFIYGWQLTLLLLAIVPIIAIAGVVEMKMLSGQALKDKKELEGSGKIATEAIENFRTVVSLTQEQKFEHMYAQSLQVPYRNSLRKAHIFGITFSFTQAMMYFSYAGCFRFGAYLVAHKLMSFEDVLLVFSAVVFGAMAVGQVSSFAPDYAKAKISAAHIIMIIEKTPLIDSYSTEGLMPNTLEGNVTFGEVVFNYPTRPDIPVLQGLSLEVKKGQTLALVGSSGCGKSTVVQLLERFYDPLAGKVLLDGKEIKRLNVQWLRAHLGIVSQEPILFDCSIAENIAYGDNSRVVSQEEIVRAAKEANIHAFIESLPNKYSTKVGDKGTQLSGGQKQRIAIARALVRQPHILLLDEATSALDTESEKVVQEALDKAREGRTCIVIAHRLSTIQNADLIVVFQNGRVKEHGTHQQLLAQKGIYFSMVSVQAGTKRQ

| SMILES | IC50 [1] [µM] | FAR (fluorescence activity ratio) ([4]; 2 μM compound) | FAR Quotient (%) ([4]; 2 μM compound) | FAR (fluorescence activity ratio) ([4]; 20 μM) | FAR Quotient (%) ([4]; 20 μM) | Increase in efflux pump inhibitory activity of naphthyl vs corresponding phenyl derivative [4] [fold] | IC50 [6] [µM] | P-gp inhibition relative to the reference verapamil ([4]; 20 µM) [fold] | viability at 200 µM [2] [%] | IC50 [2] [µM] | IC50 [3, 10] [µM] | IC50 [5, 11] [µM] | inhibition at 200 µM [7] [%] | IC50 [3] [µM] | IC50 [5, 12] [µM] | inhibition at 200 µM [8] [%] | IC50 [9] [µM] | viability at 200 µM ([2]; highest concentration (200 µM)) [%] | IC50 ([3]; MRC-5 embryonal lung fibroblast cells, MTT, MRC-5 normal lung fibroblasts, read-out: Cytotoxic activity, C—MRC-5 IC50) [µM] |
| --- | --- | --- | --- | --- | --- | --- | --- | --- | --- | --- | --- | --- | --- | --- | --- | --- | --- | --- | --- |
| COc1ccc2cc(-c3[se]c4ccccc4c(=O)c3CC(S(=O)(=O)C(F)(F)F)S(=O)(=O)C(F)(F)F)ccc2c1 [Compound 6, bis(triflyl) selenoflavone] | > 100 | 1.14 | 34.92 | 4.67 | 143.33 | 3.23 | > 100 |  | 26 | 80.62 ± 0.142 | > 100 | > 100 |  |  |  |  |  |  |  |
| COc1ccc(-c2oc3ccccc3c(=O)c2CC(S(=O)(=O)C(F)(F)F)S(=O)(=O)C(F)(F)F)cc1 [Compound 1] | > 100 | 1.14 | 34.92 | 1.53 | 46.92 |  | > 100 |  |  | 23 ± 0.297 |  |  | 30 | > 100 | > 100 |  | > 100 | 30 |  |
| COc1ccc(-c2sc3ccccc3c(=O)c2CC(S(=O)(=O)C(F)(F)F)S(=O)(=O)C(F)(F)F)cc1 [Compound 2] | > 100 | 0.97 | 29.67 | 1.89 | 57.83 |  | > 100 |  |  | 54.98 ± 0.143 |  |  | 42 | > 100 | > 100 | 47 | > 100 | 24 |  |
| COc1ccc(-c2[se]c3ccccc3c(=O)c2CC(S(=O)(=O)C(F)(F)F)S(=O)(=O)C(F)(F)F)cc1 [Compound 3] | > 100 | 1.06 | 32.58 | 1.45 | 44.33 |  | > 100 |  | 29 | 41.94 ± 0.286 | > 100 | > 100 | 49 |  |  | 57 |  |  |  |

Now from value to compound, other results behind:

| IC50 [1] [µM] | FAR (fluorescence activity ratio) ([4]; 2 μM compound) | FAR Quotient (%) ([4]; 2 μM compound) | FAR (fluorescence activity ratio) ([4]; 20 μM) | FAR Quotient (%) ([4]; 20 μM) | Increase in efflux pump inhibitory activity of naphthyl vs corresponding phenyl derivative [4] [fold] | IC50 [6] [µM] | P-gp inhibition relative to the reference verapamil ([4]; 20 µM) [fold] | SMILES | viability at 200 µM [2] [%] | IC50 [2] [µM] | IC50 [3, 10] [µM] | IC50 [5, 11] [µM] | inhibition at 200 µM [7] [%] | IC50 [3] [µM] | IC50 [5, 12] [µM] | inhibition at 200 µM [8] [%] | IC50 [9] [µM] | viability at 200 µM ([2]; highest concentration (200 µM)) [%] | IC50 ([3]; MRC-5 embryonal lung fibroblast cells, MTT, MRC-5 normal lung fibroblasts, read-out: Cytotoxic activity, C—MRC-5 IC50) [µM] |
| --- | --- | --- | --- | --- | --- | --- | --- | --- | --- | --- | --- | --- | --- | --- | --- | --- | --- | --- | --- |
| > 100 | 1.48 | 45.42 | 4.81 | 147.50 | 3.14 | > 100 |  | COc1ccc2cc(-c3oc4ccccc4c(=O)c3CC(S(=O)(=O)C(F)(F)F)S(=O)(=O)C(F)(F)F)ccc2c1 [Compound 4] |  |  |  |  | 45 | > 100 | > 100 | 37 | > 100 |  |  |
| > 100 | 1.95 | 59.92 | 8.61 | 264.17 | 4.57 | > 100 | 2.64 | COc1ccc2cc(-c3sc4ccccc4c(=O)c3CC(S(=O)(=O)C(F)(F)F)S(=O)(=O)C(F)(F)F)ccc2c1 [Compound 5] |  |  |  |  | 39 | > 100 | > 100 | 47 | > 100 |  |  |
| 0.14 |  |  |  |  |  | 0.24 |  | COc1cccc2c1C(=O)c1c(O)c3c(c(O)c1C2=O)C[C@@](O)(C(=O)CO)C[C@@H]3O[C@H]1C[C@H](N)[C@H](O)[C@H](C)O1 [DOXO, Doxorubicin, reference compound] |  |  |  | 6.45 |  |  |  |  | 1.56 |  | > 10 |
